pIC50: −log10 of the molar value.
Experiments:
[1] = biological target: human dopamine transporter (Homo sapiens (Human), UniProt Q01959); experiment: Dopamine functional uptake assay, recombinant human transporter in CHO-K1 or HEK293 cells; format: cell-based; details: read-out: hDAT IC50
[2] = biological target: human serotonin transporter (Homo sapiens (Human), UniProt P31645); experiment: Serotonin functional uptake assay, recombinant human transporter in HEK-293 cells; format: cell-based; details: Human serotonin transporter uptake; read-out: hSERT IC50
Sequence of human serotonin transporter (P31645 whole entry): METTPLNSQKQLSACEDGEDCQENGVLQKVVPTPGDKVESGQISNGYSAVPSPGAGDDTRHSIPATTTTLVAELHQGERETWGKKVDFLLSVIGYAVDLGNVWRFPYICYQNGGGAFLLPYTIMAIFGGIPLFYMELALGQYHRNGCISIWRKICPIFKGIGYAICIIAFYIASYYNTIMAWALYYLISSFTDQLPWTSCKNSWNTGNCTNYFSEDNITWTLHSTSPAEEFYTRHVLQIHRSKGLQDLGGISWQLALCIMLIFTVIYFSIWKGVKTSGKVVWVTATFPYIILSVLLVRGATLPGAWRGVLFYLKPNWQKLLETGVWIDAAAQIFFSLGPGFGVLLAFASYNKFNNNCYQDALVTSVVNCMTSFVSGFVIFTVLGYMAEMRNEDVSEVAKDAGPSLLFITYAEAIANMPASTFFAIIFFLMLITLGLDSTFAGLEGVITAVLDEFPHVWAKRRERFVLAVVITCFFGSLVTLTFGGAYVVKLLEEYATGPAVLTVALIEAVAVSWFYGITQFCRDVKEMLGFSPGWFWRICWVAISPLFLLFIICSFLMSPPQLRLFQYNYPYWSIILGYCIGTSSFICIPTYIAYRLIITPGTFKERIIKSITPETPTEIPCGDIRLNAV

Sequence of human dopamine transporter (Q01959 whole entry): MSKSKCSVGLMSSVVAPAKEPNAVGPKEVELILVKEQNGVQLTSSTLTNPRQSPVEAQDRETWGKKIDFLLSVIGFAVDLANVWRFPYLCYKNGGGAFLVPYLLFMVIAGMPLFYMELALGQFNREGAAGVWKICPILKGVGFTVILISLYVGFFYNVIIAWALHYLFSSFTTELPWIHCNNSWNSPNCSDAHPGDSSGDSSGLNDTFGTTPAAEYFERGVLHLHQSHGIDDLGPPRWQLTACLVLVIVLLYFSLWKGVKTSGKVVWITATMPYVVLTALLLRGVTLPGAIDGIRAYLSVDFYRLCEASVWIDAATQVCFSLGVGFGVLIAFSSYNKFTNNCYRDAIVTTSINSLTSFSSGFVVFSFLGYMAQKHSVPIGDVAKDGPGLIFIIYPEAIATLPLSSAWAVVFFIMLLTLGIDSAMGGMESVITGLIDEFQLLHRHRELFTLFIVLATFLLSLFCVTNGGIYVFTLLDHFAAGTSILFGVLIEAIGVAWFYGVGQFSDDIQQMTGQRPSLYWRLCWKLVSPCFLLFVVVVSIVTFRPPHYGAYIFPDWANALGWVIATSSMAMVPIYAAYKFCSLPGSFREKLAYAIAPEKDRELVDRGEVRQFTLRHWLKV

SMILES | pIC50 [1] | pIC50 [2]
COc1ccc([C@@]2(CN(C)C)CCCC[C@H]2O)cc1 (single isomer, unassigned) [156 E2, trans-2-((dimethylamino)methyl)-2-(4-methoxyphenyl)cyclohexanol] | 5.40 | 6.19
CN(C)C[C@@]1(c2ccc(Cl)c(F)c2)CCCC[C@H]1O (single isomer, unassigned) [157 E1, Cis-2-(4-chloro-3-fluorophenyl)-2-((dimethylamino)methyl)cyclohexanol] | 6.24 | 5.89
CN(C)C[C@@]1(c2ccc(Cl)c(F)c2)CCCC[C@H]1O (single isomer, unassigned) [157 E2, Cis-2-(4-chloro-3-fluorophenyl)-2-((dimethylamino)methyl)cyclohexanol] | 6.07 | 6.54
CN(C)C[C@]1(c2ccc(Cl)c(F)c2)CCCC[C@H]1O (single isomer, unassigned) [158 E1, Trans-2-(4-chloro-3-fluorophenyl)-2-((dimethylamino)methyl)cyclohexanol] | 6.02 | 5.07
CN(C)C[C@]1(c2ccc(Cl)c(F)c2)CCCC[C@H]1O (single isomer, unassigned) [158 E2, Trans-2-(4-chloro-3-fluorophenyl)-2-((dimethylamino)methyl)cyclohexanol] | 5.30 | 5.52
CN(C)C[C@@]1(c2ccc(C(F)(F)F)cc2)CCCC[C@H]1O (single isomer, unassigned) [159 E1, cis-2-((dimethylamino)methyl)-2-(4-(trifluoromethyl)phenyl)cyclohexanol] | 5.42 | 5.90
CN(C)C[C@@]1(c2ccc(C(F)(F)F)cc2)CCCC[C@H]1O (single isomer, unassigned) [159 E2, cis-2-((dimethylamino)methyl)-2-(4-(trifluoromethyl)phenyl)cyclohexanol] | 5.64 | 7.38
CN(C)C[C@]1(c2ccc(C(F)(F)F)cc2)CCCC[C@H]1O (single isomer, unassigned) [160 E1, trans-2-((dimethylamino)methyl)-2-(4-(trifluoromethyl)phenyl)cyclohexanol] | 5.01 | 5.14
CN(C)C[C@]1(c2ccc(C(F)(F)F)cc2)CCCC[C@H]1O (single isomer, unassigned) [160 E2, trans-2-((dimethylamino)methyl)-2-(4-(trifluoromethyl)phenyl)cyclohexanol] | < 5.00 | 5.29
CO[C@@H]1CCC[C@@](CN)(c2ccc(Cl)c(Cl)c2)C1 [Compound 192] | 5.71 | < 5.00
CNC[C@]1(c2ccc(Cl)c(Cl)c2)CC[C@H](O)CC1 [Compound 287, cis-4-(3,4-dichlorophenyl)-4-((methylamino)methyl)cyclohexanol] | 6.72 | 5.98
CCN(C)[C@H]1CC[C@@](CN)(c2ccc(Cl)c(Cl)c2)CC1 [Compound 290, trans-4-(aminomethyl)-4-(3,4-dichlorophenyl)-N-ethyl-N-methylcyclo-hexanamine] | 5.86 | 6.00

Reference: US10562878B2, “Cycloalkylamines as monoamine reuptake inhibitors” (Sunovion Pharmaceuticals Inc., priority 2006, dated 2020)
